# In US12590070B2, “Adamantane derivatives as inhibitors of focal adhesion kinase” (SAMJIN PHARMACEUTICAL CO., LTD., priority 2019, dated 2026):
# Key:
# [1] = target: T1, Pyk2 (Homo sapiens, UniProt Q14289); assay: ADP-Glo Kinase Assay, Pyk2; type: biochemical; conditions: ADP-Glo Kinase Assay Kit
# T1 construct: purchased Promega V4083
# Experimental: (§1) Briefly, a kinase test was performed and quantified according to the manufacturer's instructions after treating the adamantane derivative compound of the present invention by using the ADP-Glo™ Kinase Assay Kit (FAK, Promega, V1971; Pyk2, Promega, V4083; InsR, Promega, V9401) containing each kinase of Promega.
# [2] = target: T2, InsR (Homo sapiens, UniProt P06213); assay: ADP-Glo Kinase Assay, InsR; type: biochemical; conditions: ADP-Glo Kinase Assay Kit
# T2 construct: purchased Promega V9401
# Experimental: as §1
# [3] = target: T1, Pyk2; assay: Eurofins kinase screening and profiling, Pyk2; type: biochemical
# [4] = target: T3, Met (Homo sapiens, UniProt P08581); assay: Eurofins kinase screening and profiling, Met; type: biochemical
# T3 construct: purchased Eurofins (contract screening service)
# T3 sequence (P08581 25-1390): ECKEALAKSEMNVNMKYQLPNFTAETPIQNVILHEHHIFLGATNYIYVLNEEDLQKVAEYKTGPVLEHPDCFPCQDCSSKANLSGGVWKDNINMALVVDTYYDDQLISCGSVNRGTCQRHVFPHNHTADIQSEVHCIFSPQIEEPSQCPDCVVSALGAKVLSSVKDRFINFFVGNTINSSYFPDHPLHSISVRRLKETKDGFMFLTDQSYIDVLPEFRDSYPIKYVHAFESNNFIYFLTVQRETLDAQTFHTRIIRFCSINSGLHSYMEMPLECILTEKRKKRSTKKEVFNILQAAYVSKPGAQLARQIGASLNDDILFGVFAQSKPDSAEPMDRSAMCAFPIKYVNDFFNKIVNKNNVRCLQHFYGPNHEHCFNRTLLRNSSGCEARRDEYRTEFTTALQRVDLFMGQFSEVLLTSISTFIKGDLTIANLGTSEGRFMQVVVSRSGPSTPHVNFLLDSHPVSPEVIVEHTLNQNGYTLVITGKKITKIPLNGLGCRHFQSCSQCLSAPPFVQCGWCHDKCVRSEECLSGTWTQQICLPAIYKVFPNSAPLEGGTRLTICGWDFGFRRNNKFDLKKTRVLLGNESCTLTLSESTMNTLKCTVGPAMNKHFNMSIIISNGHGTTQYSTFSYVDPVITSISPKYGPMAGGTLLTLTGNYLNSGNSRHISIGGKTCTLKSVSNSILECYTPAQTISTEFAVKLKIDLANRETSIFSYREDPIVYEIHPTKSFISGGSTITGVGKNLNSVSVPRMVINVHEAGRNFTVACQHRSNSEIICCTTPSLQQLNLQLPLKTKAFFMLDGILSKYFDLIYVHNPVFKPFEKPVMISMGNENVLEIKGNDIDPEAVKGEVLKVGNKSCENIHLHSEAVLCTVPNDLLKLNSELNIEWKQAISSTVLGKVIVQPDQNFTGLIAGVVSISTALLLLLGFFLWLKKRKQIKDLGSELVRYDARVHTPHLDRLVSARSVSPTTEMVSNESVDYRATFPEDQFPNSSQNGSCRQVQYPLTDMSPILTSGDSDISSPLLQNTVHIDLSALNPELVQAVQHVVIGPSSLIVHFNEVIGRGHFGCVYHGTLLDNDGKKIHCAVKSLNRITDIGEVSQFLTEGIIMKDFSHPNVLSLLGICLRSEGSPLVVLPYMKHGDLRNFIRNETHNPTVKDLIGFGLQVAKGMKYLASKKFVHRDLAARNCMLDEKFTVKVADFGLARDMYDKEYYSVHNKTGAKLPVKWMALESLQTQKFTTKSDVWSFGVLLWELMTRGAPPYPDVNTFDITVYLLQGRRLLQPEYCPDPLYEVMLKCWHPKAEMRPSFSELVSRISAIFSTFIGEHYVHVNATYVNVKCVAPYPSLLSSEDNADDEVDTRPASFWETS
# [5] = target: T4, ALK (Homo sapiens, UniProt Q9UM73); assay: Eurofins kinase screening and profiling, ALK; type: biochemical
# T4 construct: purchased Eurofins (contract screening service)
# T4 sequence (Q9UM73 19-1620): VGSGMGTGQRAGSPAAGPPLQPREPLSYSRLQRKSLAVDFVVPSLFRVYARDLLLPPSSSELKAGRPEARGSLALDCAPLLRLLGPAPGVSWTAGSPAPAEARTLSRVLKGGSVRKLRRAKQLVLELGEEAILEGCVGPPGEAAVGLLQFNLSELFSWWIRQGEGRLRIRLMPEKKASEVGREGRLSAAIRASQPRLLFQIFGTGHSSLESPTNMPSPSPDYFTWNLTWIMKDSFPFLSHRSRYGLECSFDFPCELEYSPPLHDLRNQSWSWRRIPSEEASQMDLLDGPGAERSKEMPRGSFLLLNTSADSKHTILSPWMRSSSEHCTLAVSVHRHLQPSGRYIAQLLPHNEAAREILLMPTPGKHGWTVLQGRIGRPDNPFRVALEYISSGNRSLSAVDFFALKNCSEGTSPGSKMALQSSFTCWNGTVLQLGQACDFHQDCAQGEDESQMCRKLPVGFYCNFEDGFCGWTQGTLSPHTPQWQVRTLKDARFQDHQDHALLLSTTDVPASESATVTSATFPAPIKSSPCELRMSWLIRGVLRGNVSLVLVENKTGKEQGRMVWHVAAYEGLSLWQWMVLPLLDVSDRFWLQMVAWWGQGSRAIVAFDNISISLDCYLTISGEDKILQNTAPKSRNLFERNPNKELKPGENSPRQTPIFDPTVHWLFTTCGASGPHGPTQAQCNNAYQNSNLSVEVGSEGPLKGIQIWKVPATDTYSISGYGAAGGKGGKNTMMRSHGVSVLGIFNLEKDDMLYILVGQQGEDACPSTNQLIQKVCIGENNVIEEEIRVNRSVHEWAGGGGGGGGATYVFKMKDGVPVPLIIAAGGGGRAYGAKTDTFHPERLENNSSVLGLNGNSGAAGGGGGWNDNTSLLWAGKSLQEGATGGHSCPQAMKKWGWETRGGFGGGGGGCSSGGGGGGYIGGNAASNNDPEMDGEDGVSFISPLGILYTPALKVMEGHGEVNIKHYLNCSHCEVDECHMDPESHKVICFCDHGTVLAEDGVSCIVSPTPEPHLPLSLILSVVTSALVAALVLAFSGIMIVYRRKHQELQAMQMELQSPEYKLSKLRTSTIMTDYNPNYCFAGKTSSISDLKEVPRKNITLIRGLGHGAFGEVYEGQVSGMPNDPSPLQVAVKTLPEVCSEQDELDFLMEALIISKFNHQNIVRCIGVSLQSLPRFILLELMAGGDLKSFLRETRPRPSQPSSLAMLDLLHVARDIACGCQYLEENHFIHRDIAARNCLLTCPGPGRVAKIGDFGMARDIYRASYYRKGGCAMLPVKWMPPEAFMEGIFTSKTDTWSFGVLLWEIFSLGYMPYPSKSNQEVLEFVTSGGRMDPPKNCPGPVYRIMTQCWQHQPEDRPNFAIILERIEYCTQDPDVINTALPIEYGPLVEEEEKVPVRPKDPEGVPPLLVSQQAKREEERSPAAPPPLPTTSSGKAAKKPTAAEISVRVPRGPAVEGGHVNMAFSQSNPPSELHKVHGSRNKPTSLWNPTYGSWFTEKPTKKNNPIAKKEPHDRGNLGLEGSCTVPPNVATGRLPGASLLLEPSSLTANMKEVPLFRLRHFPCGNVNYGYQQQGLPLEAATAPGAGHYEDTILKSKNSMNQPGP
# [6] = tested on: MDA-MB-453; assay: 3D spheroid assay, MDA-MB-453; type: cell-based; conditions: Homo sapiens; MDA-MB-453 spheroids, 96 hours; read-out: Cancer cell growth inhibitory activity (IC50)
# Experimental: (§2) A 3D spheroid assay was performed as a method for measuring the growth of cancer cells under three-dimensional (3D) culture conditions. Briefly, the 5×10^3 triple-negative breast cancer cells in each well of a 96-well flat plate were three-dimensionally cultured for three days by using MammoCult™ Human Medium Kit (Stemcell Technologies, #05620) and the formed cancer cell spheroids were treated with compound 4 at different concentrations (o, 0.2, 0.5, 1, 2, 5, 10, 20 PM) for 96 hours. The cancer cell growth inhibitory effect of the compound was quantified according to the manufacturer's instructions by using CellTiter-Glo® 3D Cell Viability Assay Kit (Promega, G9681).
# [7] = tested on: Hs578T; assay: 3D spheroid assay, Hs578T; type: cell-based; conditions: Homo sapiens, Hs-578T; Hs578T spheroids, 96 hours; read-out: Cancer cell growth inhibitory activity (IC50)
# Experimental: as §2
# [8] = tested on: MDA-MB-231 cells; assay: 3D invasion assay; type: cell-based, human; conditions: MDA-MB-231 spheroids, 1, 5 μM, 72 hours, FIGS. 2 and 3
# Experimental: A cell invasion assay was performed and quantified according to a 3D invasion assay. Briefly, MDA-MB-231 cells were cultured in a 96-well round plate (5×10^3/well) for three days to form cancer cell spheroids, then fixed in a mixture of semi-solid Matrigel and type I collagen, and then treated with compound 4 at different concentrations (1, 5 μM). A degree of infiltration was analyzed by using a microscope (see FIG. 2) and an imaging software ImageJ in 72 hours later, and an obtained area value was quantified based on a following equation (Equation 1) and shown in a graph (see FIG. 3). Relative invasion=(total area of compound treated group−spheroid area of compound treated group)/(total area of control−spheroid area of control) [Equation 1]
# [9] = tested on: MDA-MB-231 cells; assay: Triple-negative breast cancer xenograft mouse model; type: in vivo; conditions: MDA-MB-231 xenograft nude mice
# Experimental: In one week after acclimatization of five-week-old male nude mice, 1×10^6 MDA-MB-231 cells were subcutaneously inoculated into the mice and observed until a tumor volume reached about 100 mm^3 after 14 days. In order to confirm a tumor growth inhibitory effect of derived candidate materials in the triple-negative breast cancer xenograft mouse model, eight mice for each group were divided into a control group and three experimental groups at different concentrations (4-20 mg/kg, 4-40 mg/kg and 4-80 mg/kg), and each compound was treated once daily. A tumor volume of the mice was measured three times a week on every other day, and the mice were sacrificed on day 29 after cell inoculation. FIG. 4 is a graph showing the tumor volume calculated based on the following formula (Equation 2) with a starting date of drug treatment as day 1. Tumor volume (mm^3)=[(tumor short diameter^2×tumor long diameter)/2] [Equation 2] […] [Equation 3]
# [10] = target: T5, FAK (Homo sapiens, UniProt Q05397); assay: ADP-Glo Kinase Assay, FAK; type: biochemical; set-up: purchased Promega V1971; conditions: ADP-Glo Kinase Assay Kit
# T5 sequence (Q05397 whole entry): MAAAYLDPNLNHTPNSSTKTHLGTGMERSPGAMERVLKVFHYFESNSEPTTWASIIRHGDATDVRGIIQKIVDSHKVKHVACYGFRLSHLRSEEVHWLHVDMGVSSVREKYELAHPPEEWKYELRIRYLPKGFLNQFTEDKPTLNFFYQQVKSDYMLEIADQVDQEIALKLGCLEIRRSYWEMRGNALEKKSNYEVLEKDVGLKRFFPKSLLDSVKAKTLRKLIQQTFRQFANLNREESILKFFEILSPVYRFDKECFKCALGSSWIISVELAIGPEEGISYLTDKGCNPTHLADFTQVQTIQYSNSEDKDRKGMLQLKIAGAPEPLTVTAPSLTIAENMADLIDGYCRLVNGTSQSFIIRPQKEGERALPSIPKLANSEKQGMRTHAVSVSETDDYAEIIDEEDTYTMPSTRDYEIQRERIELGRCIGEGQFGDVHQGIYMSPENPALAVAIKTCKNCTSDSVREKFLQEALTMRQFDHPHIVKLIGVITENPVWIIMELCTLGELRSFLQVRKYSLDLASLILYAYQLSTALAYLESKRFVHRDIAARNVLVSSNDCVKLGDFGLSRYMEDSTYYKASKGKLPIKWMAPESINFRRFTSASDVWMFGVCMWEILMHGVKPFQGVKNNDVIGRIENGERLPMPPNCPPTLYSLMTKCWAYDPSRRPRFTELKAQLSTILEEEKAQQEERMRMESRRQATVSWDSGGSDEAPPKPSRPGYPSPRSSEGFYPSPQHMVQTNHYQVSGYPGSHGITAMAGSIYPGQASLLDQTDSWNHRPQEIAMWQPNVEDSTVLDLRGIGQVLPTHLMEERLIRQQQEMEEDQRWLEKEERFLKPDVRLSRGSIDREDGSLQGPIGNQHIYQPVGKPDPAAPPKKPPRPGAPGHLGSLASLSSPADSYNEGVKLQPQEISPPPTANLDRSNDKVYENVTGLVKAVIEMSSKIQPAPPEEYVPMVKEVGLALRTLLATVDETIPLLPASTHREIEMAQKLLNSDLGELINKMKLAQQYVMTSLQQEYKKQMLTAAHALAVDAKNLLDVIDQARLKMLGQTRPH
# Experimental: as §1
# [11] = target: T5, FAK; assay: Eurofins kinase screening and profiling, FAK; type: biochemical; set-up: purchased Promega V1971
# [12] = target: T5, FAK; assay: FAK [pY397] ELISA in MDA-MB-231 cells; type: cell-based; set-up: endogenous in cells; host or cells: MDA-MB-231; conditions: MDA-MB-231, treated for one hour, Table 2; read-out: FAK inhibitory activity (IC50)
# Experimental: (§3) Briefly, an enzyme-linked immunosorbent assay test was performed according to the manufacturer's instructions by using the FAK (Phospho) [pY397] Human ELISA Kit (Thermo Fisher Scientific, KH00441) after dispensing 1×10^6 MDA-MB-231 cells into each well of a 6-well plate, inducing cell stabilization for 24 hours, and treating each compound at different concentrations (o, 1, 5, 10, 50, 100, 500, 1000 nM) for one hour.
# [13] = target: T5, FAK; assay: FAK [pY397] ELISA in MDA-MB-453 cells; type: cell-based; set-up: endogenous in cells; host or cells: MDA-MB-231; conditions: cell line MDA-MB-453; read-out: FAK inhibitory activity (IC50)
# [14] = target: T5, FAK; assay: FAK [pY397] ELISA in HCC70 cells; type: cell-based; set-up: endogenous in cells; host or cells: MDA-MB-231; conditions: cell line HCC70; read-out: FAK inhibitory activity (IC50)
# Experimental: as §3
# [15] = target: T5, FAK; assay: FAK [pY397] ELISA in BT-20 cells; type: cell-based; set-up: endogenous in cells; host or cells: MDA-MB-231; conditions: cell line BT-20; read-out: FAK inhibitory activity (IC50)
# [16] = target: T5, FAK; assay: FAK [pY397] ELISA in BT-549 cells; type: cell-based; set-up: endogenous in cells; host or cells: MDA-MB-231; conditions: cell line BT-549; read-out: FAK inhibitory activity (IC50)
# [17] = target: T5, FAK; assay: FAK [pY397] ELISA in Hs578T cells; type: cell-based; set-up: endogenous in cells; host or cells: MDA-MB-231; conditions: cell line Hs578T; read-out: FAK inhibitory activity (IC50)
# [18] = at 1 μM, read-out: % inhibition rate (at 1 μM)
# T1 sequence (Q14289 whole entry): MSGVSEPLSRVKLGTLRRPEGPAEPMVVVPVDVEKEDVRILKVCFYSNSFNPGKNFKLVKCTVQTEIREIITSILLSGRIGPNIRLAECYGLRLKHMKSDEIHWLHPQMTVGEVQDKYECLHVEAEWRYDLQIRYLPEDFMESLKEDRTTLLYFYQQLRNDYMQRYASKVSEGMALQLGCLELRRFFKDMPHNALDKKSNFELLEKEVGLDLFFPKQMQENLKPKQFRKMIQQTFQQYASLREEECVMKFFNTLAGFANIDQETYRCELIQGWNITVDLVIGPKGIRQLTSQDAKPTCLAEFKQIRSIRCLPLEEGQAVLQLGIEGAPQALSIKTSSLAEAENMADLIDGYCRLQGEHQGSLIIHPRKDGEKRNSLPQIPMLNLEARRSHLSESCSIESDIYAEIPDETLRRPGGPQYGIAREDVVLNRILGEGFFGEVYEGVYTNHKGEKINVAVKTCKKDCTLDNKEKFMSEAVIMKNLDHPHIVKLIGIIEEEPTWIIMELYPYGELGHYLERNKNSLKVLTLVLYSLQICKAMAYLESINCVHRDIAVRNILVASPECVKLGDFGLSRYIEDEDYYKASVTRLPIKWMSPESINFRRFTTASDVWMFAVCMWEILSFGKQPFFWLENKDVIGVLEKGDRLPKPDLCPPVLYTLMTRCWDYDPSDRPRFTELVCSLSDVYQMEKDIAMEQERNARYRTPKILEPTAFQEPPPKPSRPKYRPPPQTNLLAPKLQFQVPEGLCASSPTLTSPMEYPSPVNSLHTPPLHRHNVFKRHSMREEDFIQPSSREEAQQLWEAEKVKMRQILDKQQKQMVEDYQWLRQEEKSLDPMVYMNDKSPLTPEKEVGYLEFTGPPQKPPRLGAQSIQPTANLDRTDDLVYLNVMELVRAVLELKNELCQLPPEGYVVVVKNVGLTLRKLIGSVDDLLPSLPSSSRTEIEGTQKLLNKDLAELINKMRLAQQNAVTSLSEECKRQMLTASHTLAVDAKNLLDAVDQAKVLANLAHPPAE
smiles,measurement,setting,value
"CNC(=O)c1cccc(C)c1Nc1nc(Nc2ccc(N3CCN([C@H]4C5CC6CC4C[C@](O)(C6)C5)CC3)cc2OC)ncc1C(F)(F)F [Compound 4, 2-((2-((4-(4-((trans)-5-hydroxyadamantan-2-yl)piperazin-1-yl)-2-methoxyphenyl)amino)-5-(trifluoromethyl)pyrimidin-4-yl)amino)-N,3-dimethylbenzamide]",IC50,[1],151 nM
same,IC50,[2],5670 nM
same,IC50,"[3]; Pyk2, Eurofins",301 nM
same,inhibition at 1 µM,"[3]; Pyk2, at 1 μM, read-out: % inhibition rate (at 1 μM)",96%
same,IC50,[4]; Eurofins,542 nM
same,inhibition at 1 µM,[4]; [18],79%
same,IC50,[5]; Eurofins,802 nM
same,inhibition at 1 µM,[5]; [18],72%
same,IC50,[6],1040 nM
same,IC50,[7],> 10000 nM
same,invasion inhibitory activity,[8],excellent invasion inhibitory activity
same,% TGI,[9]; 20 mg/kg once daily,72.11%
same,% TGI,[9]; 40 mg/kg once daily,74.03%
same,% TGI,[9]; 80 mg/kg once daily,81.28%
same,IC50,[10],46.2 nM
same,IC50,[11]; Eurofins,78 nM
same,inhibition at 1 µM,[11]; [18],97%
same,IC50,[12],34 nM
same,IC50,[13],20 nM
same,IC50,[14],59 nM
same,IC50,[15],63 nM
same,IC50,[16],49 nM
same,IC50,[17],20 nM
